# In patent US11214565B2, “Compound, compositions, and methods” (Denali Therapeutics Inc., priority 2015, dated 2022):
# Target: LRRK2 G2019S enzyme (Homo sapiens (Human), UniProt Q5S007, G2019S)
# Test: LRRK2 G2019S TR-FRET biochemical kinase assay (LRRKtide substrate)
# Settings: 5 nM LRRK2, 134 μM ATP, 60 minute reaction, 23° C.
# Procedure, shortened: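 TR-FRET phospho-LRRKtide readout (2 nM antibody, 10 mM EDTA, 60 min) after a 60 min, 23 °C kinase reaction. The reaction used 134 μM ATP and 5 nM enzyme in pH 7.5 Tris/MgCl2/EGTA/DTT buffer, with compound and enzyme-substrate mix preincubated for 20 min beforehand.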
# LRRK2 G2019S enzyme, sequence (Q5S007 whole entry G2019S): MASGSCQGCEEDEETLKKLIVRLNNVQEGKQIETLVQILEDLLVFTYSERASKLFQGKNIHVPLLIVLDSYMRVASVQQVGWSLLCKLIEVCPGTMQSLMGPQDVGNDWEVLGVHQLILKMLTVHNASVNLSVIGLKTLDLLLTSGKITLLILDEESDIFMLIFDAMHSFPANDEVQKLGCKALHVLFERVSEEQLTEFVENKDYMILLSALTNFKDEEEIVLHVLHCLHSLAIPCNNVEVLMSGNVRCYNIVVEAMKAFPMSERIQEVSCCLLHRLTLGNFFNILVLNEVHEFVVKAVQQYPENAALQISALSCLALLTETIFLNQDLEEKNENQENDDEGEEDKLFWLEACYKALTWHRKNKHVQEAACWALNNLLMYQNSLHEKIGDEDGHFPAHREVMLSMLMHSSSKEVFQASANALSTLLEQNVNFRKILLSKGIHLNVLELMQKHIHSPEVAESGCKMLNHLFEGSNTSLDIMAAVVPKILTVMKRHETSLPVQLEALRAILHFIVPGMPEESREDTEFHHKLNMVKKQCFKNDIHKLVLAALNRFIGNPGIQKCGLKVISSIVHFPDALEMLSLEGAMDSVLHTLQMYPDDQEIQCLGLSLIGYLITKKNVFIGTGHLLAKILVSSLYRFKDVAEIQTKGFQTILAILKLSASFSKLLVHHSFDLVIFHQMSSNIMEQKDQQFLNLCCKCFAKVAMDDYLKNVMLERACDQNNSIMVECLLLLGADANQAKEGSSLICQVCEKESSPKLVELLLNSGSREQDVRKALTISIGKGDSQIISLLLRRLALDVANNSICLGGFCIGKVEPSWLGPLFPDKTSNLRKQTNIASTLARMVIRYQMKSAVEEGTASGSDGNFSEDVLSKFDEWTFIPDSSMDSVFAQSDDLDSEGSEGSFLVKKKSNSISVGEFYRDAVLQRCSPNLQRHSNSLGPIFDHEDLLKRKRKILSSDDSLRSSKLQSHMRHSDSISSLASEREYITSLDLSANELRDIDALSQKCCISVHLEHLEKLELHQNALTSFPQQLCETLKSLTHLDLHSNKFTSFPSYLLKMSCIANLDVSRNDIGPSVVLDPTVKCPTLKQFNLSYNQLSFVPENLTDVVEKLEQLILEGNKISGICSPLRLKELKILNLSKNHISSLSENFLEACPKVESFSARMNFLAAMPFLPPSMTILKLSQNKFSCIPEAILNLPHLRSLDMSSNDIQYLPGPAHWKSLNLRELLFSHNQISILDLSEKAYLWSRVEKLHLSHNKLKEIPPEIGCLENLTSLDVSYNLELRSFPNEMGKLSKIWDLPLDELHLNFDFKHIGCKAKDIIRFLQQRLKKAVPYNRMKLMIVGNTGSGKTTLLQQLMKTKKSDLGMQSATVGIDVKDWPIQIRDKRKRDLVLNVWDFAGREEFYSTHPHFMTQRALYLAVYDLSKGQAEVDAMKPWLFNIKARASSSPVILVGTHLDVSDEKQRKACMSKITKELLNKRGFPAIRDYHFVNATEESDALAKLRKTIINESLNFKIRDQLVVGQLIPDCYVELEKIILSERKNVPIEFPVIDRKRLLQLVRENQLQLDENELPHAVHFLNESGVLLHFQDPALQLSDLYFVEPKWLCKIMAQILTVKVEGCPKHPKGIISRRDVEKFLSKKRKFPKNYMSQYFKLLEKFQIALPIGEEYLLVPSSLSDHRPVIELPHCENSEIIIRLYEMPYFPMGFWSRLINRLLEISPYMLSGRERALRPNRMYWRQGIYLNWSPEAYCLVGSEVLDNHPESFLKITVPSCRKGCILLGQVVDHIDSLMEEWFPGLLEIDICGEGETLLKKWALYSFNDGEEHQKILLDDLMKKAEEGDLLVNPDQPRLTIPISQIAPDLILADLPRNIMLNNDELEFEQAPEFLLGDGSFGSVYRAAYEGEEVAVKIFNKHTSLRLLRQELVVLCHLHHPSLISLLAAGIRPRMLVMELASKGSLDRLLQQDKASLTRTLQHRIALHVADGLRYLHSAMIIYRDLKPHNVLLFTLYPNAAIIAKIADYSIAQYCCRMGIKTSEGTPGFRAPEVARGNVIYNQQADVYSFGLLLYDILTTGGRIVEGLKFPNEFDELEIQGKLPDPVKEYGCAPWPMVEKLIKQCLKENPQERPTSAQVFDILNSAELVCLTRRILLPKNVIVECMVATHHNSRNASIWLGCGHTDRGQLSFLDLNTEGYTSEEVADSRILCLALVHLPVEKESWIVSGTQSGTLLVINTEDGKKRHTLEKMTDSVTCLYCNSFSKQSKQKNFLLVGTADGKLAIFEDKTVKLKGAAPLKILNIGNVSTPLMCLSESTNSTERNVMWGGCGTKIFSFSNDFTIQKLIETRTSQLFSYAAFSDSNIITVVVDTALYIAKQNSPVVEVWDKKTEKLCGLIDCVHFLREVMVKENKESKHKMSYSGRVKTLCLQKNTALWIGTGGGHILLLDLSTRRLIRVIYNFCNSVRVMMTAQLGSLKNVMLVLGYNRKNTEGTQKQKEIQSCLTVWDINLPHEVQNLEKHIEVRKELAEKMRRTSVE
SMILES,IC50 (Table B-2),IC50 (Table C-2),also measured
"Cc1nn([C@H]2C[C@H](c3ncnn3C)C2)cc1Nc1ncc(C(F)(F)F)c(C2CC2)n1 [Compound A-81, 4-cyclopropyl-N-(3-methyl-1-((1r,3r)-3-(1-methyl-1H-1,2,4-triazol-5-yl)cyclobutyl)-1H-pyrazol-4-yl)-5-(trifluoromethyl)pyrimidin-2-amine]",,,IC50 (Table A-2): < 30 nM
Cc1nn(C(F)(F)C(N)=O)cc1Nc1ncc(C(F)(F)F)c(C2CC2)n1 [Compound A-87],,,IC50 (Table A-2): < 30 nM
Cc1c(Nc2ncc(C(F)(F)F)c(C3CC3)n2)cnn1C1(C)CCNC1=O (stereo not drawn) [Compound A-93],,,IC50 (Table A-2): < 30 nM
"CNc1nc(Nc2cnn(C)c2C)nc2[nH]cc(Cl)c12 [Compound B-1, 5-chloro-N^2-(1,5-dimethylpyrazol-4-yl)-N4-methyl-7H-pyrrolo[2,3-d]pyrimidine-2,4-diamine]",1 to 2 nM,,
"CCNc1nc(Nc2cn(C(C)(C)C#N)nc2C)nc2[nH]cc(Cl)c12 [Compound B-2, 2-[4-[[5-chloro-4-(ethylamino)-7H-pyrrolo[2,3-d]pyrimidin-2-yl]amino]-3-methyl-pyrazol-1-yl]-2-methyl-propanenitrile]",≤ 1 nM,,
"CCOc1nc(Nc2cn(C(C)(C)C#N)nc2C)nc2[nH]cc(Cl)c12 [Compound B-3, 2-[4-[[5-chloro-4-ethoxy-7H-pyrrolo[2,3-d]pyrimidin-2-yl]amino]-3-methyl-pyrazol-1-yl]-2-methyl-propanenitrile]",≤ 1 nM,,
"CNc1nc(Nc2cn(C)nc2C)nc2[nH]cc(Cl)c12 [Compound B-4, 5-chloro-N^2-(1,3-dimethyl-1H-pyrazol-4-yl)-N^4-methyl-7H-pyrrolo[2,3-d]pyrimidine-2,4-diamine]",2 to 20 nM,,
"COc1nc(Nc2cn(C(C)(C)C#N)nc2C)nc2[nH]cc(Cl)c12 [Compound B-5, 2-[4-[(5-chloro-4-methoxy-7H-pyrrolo[2,3-d]pyrimidin-2-yl)amino]-3-methyl-pyrazol-1-yl]-2-methyl-propanenitrile]",1 to 2 nM,,
"CNc1nc(Nc2cn(C(C)(C)C#N)nc2C)nc2[nH]cc(Cl)c12 [Compound B-6, 2-[4-[[5-Chloro-4-(methylamino)-7H-pyrrolo[2,3-d]pyrimidin-2-yl]amino]-3-methyl-pyrazol-1-yl]-2-methyl-propanenitrile]",≤ 1 nM,,
"COc1nc(Nc2cn(C(C)(C)C#N)nc2C)nc2[nH]cnc12 [Compound B-7, 2-(4-((6-methoxy-9H-purin-2-yl)amino)-3-methyl-1H-pyrazol-1-yl)-2-methylpropanenitrile]",2 to 20 nM,,
"COc1nc(Nc2cnn(C)c2C)nc2[nH]cc(Cl)c12 [Compound B-8, 5-chloro-N-(1,5-dimethylpyrazol-4-yl)-4-methoxy-7H-pyrrolo[2,3-d]pyrimidin-2-amine]",1 to 2 nM,,
"COc1nc(Nc2cn(C)nc2C)nc2[nH]cc(Cl)c12 [Compound B-9, 5-chloro-N-(1,3-dimethylpyrazol-4-yl)-4-methoxy-7H-pyrrolo[2,3-d]pyrimidin-2-amine]",2 to 20 nM,,
"CNc1nc(Nc2cn(C(C)(C)C#N)nc2C)nc2[nH]cc(F)c12 [Compound B-10, 2-(4-((5-fluoro-4-(methylamino)-7H-pyrrolo[2,3-d]pyrimidin-2-yl)amino)-3-methyl-1H-pyrazol-1-yl)-2-methylpropanenitrile]",1 to 2 nM,,
"COc1nc(Nc2cn(C(C)(C)C#N)nc2C)nc2[nH]cc(F)c12 [Compound B-11, 2-[4-[(5-fluoro-4-methoxy-7H-pyrrolo[2,3-d]pyrimidin-2-yl)amino]-3-methyl-pyrazol-1-yl]-2-methyl-propanenitrile]",1 to 2 nM,,
"CCOc1nc(Nc2cn(C(C)(C)C#N)nc2C)nc2[nH]cnc12 [Compound B-12, 2-[4-[(6-ethoxy-9H-purin-2-yl)amino]-3-methyl-pyrazol-1-yl]-2-methyl-propanenitrile]",2 to 20 nM,,
"COc1nc(Nc2cn(C(C)(C)C#N)nc2C)nc2[nH]cc(C3CC3)c12 [Compound B-13, 2-[4-[(5-cyclopropyl-4-methoxy-7H-pyrrolo[2,3-d]pyrimidin-2-yl)amino]-3-methyl-pyrazol-1-yl]-2-methyl-propanenitrile]",2 to 20 nM,,
"COc1nc(Nc2cn(C(C)(C)C#N)nc2C)nc2[nH]cc(C(F)(F)F)c12 [Compound B-14, 2-(4-((4-methoxy-5-(trifluoromethyl)-7H-pyrrolo[2,3-d]pyrimidin-2-yl)amino)-3-methyl-1H-pyrazol-1-yl)-2-methylpropanenitrile]",2 to 20 nM,,

# Further lines, with some results ahead:
IC50 (Table B-2),IC50 (Table C-2),SMILES,also measured
,< 50 nM,"Cc1nn(C(CF)CF)cc1Nc1nc(C2CC2)c2nc[nH]c2n1 [Compound C-1, 6-cyclopropyl-N-[1-[2-fluoro-1-(fluoromethyl)ethyl]-3-methyl-pyrazol-4-yl]-9H-purin-2-amine]",
,< 50 nM,"Cc1c(Nc2nc(C3CC3)c3nc[nH]c3n2)cnn1C(CF)CF [Compound C-2, 6-cyclopropyl-N-(1-(1,3-difluoropropan-2-yl)-5-methyl-1H-pyrazol-4-yl)-9H-purin-2-amine]",
,< 50 nM,"Cc1c(Nc2nc(C3CC3)c3nc[nH]c3n2)cnn1C(F)F [Compound C-4, 6-cyclopropyl-N-(1-(difluoromethyl)-5-methyl-1H-pyrazol-4-yl)-9H-purin-2-amine]",
,< 50 nM,"Cc1c(Nc2nc(C3CC3)c3nc[nH]c3n2)cnn1C [Compound C-5, 6-cyclopropyl-N-(1,5-dimethylpyrazol-4-yl)-9H-purin-2-amine]",
,< 50 nM,"Cc1nn(C)cc1Nc1nc(C2CC2)c2nc[nH]c2n1 [Compound C-6, 6-cyclopropyl-N-(1,3-dimethylpyrazol-4-yl)-9H-purin-2-amine]",
,< 50 nM,"Cc1c(Nc2nc(C3CC3)c3nc[nH]c3n2)cnn1CC1CC1 [Compound C-7, 6-cyclopropyl-N-(1-(cyclopropylmethyl)-5-methyl-1H-pyrazol-4-yl)-9H-purin-2-amine]",
,< 50 nM,"c1nc2c(C3CC3)nc(Nc3cnn4c3CC3(CC3)C4)nc2[nH]1 [Compound C-8, N-(6-cyclopropyl-9H-purin-2-yl)spiro[4,6-dihydropyrrolo[1,2-b]pyrazole-5,1 cyclopropane]-3-amine]",
,< 50 nM,"Cc1nn(C(C)(C)C#N)cc1Nc1nc(C2CC2)c2nc[nH]c2n1 [Compound C-9, 2-(4-((6-cyclopropyl-9H-purin-2-yl)amino)-3-methyl-1H-pyrazol-1-yl)-2-methylpropanenitrile]",
,< 50 nM,"Cc1nn(C(C)(C)C#N)cc1Nc1nc(C2CC2)c2c(C#N)c[nH]c2n1 [Compound C-10, 2-[[1-(1-cyano-1-methyl-ethyl)-3-methyl-pyrazol-4-yl]amino]-4-cyclopropyl-7H-pyrrolo[2,3-d]pyrimidine-5-carbonitrile]",
,< 50 nM,"Cc1c(Nc2nc(C3CC3)c3c(C#N)c[nH]c3n2)cnn1C(CF)CF [Compound C-11, 4-cyclopropyl-2-[[1-[2-fluoro-1-(fluoromethyl)ethyl]-5-methyl-pyrazol-4-yl]amino]-7H-pyrrolo[2,3-d]pyrimidine-5-carbonitrile]",
,< 50 nM,"Cc1nn(C(CF)CF)cc1Nc1nc(C2CC2)c2c(C#N)c[nH]c2n1 [Compound C-12, 4-cyclopropyl-2-[[1-[2-fluoro-1-(fluoromethyl)ethyl]-3-methyl-pyrazol-4-yl]amino]-7H-pyrrolo[2,3-d]pyrimidine-5-carbonitrile]",
,< 50 nM,"N#Cc1c[nH]c2nc(Nc3cnn4c3CC3(CC3)C4)nc(C3CC3)c12 [Compound C-13, 4-cyclopropyl-2-(spiro[4,6-dihydropyrrolo[1,2-b]pyrazole-5,1′-cyclopropane]-3-ylamino)-7H-pyrrolo[2,3-d]pyrimidine-5-carbonitrile]",
,< 50 nM,"Cc1nn(C(C)(C)C#N)cc1Nc1nc(C2CC2)c2c(F)c[nH]c2n1 [Compound C-14, 2-[4-[(4-cyclopropyl-5-fluoro-7H-pyrrolo[2,3-d]pyrimidin-2-yl)amino]-3-methyl-pyrazol-1-yl]-2-methyl-propanenitrile]",
,> 100 nM,"Cn1ccc(Nc2cc(C3CC3)c3nc[nH]c3n2)n1 [Compound C-17, 7-cyclopropyl-N-(1-methyl-1H-pyrazol-3-yl)-3H-imidazo[4,5-b]pyridin-5-amine]",
,< 50 nM,"Cc1c(Nc2nc(C3CC3)c3c(C#N)c[nH]c3n2)cnn1C [Compound C-18, 4-cyclopropyl-2-[(1,5-dimethylpyrazol-4-yl)amino]-7H-pyrrolo[2,3-d]pyrimidine-5-carbonitrile]",
,< 50 nM,"Cc1nn(C)cc1Nc1nc(C2CC2)c2c(C#N)c[nH]c2n1 [Compound C-19, 4-cyclopropyl-2-[(1,3-dimethylpyrazol-4-yl)amino]-7H-pyrrolo[2,3-d]pyrimidine-5-carbonitrile]",
,< 50 nM,"Cc1cn(C)nc1Nc1cc(C2CC2)c2c(C#N)c[nH]c2n1 [Compound C-20, 4-cyclopropyl-6-((1,4-dimethyl-1H-pyrazol-3-yl)amino)-1H-pyrrolo[2,3-b]pyridine-3-carbonitrile]",
,< 50 nM,"Cn1ccc(Nc2cc(C3CC3)c3c(C#N)c[nH]c3n2)n1 [Compound C-21, 4-cyclopropyl-6-((1-methyl-1H-pyrazol-3-yl)amino)-1H-pyrrolo[2,3-b]pyridine-3-carbonitrile]",
,< 50 nM,Cc1nn(C(C)(C)C#N)cc1Nc1nc(C2CC2)c2c(Cl)c[nH]c2n1 [Compound C-22],
,< 50 nM,Cc1nn(C(C)(C)C#N)cc1Nc1nc(C2CC2)c2cc[nH]c2n1 [Compound C-23],
,< 50 nM,Cc1nn(C)cc1Nc1nc(C2CC2)c2cc[nH]c2n1 [Compound C-24],
,< 50 nM,Cc1c(Nc2nc(C3CC3)c3cc[nH]c3n2)cnn1C [Compound C-25],
,< 50 nM,Cc1nn(C(C)(C)c2ncn(C)n2)cc1Nc1nc(C2CC2)c2c(C#N)c[nH]c2n1 [Compound C-26],
,< 50 nM,Cc1nn(C(C)(C)c2ncn(C)n2)cc1Nc1nc(C2CC2)c2cc[nH]c2n1 [Compound C-27],
,< 50 nM,Cc1nn(C(C)(C)c2ncn(C)n2)cc1Nc1nc(C2CC2)c2c(Cl)c[nH]c2n1 [Compound C-28],
